Experimental data from PMC6152724, “Secondary Sulfonamides as Effective Lactoperoxidase Inhibitors” (Molecules : A Journal of Synthetic Chemistry and Natural …, 2017).

Molecular target: T1, LPO purified from bovine milk (Bos taurus, UniProt P80025)
T1 construct: from tissue; host or cells: fresh bovine milk
Test: LPO inhibition assay (ABTS oxidation by H2O2, absorbance at 412 nm; Lineweaver–Burk plots)
Format: biochemical
Conditions: for IC50: from activity (%)-[inhibitor] regression graphs, ABTS substrate; for Inhibition Type: with respect to ABTS substrate, from Lineweaver–Burk plots
Method: LPO activities were determined by the procedure of Shindler and Bardsley with slight modification. This method is based on the oxidation of chromogenic substrate 2,2′-azino-bis(3-ethylbenzothiazoline-6-sulfonic acid) (ABTS) by hydrogen peroxide (H2O2), which results in a product which had absorbance at 412 nm.
The effects of secondary sulfonamide derivatives (4a–8h) on LPO purified from fresh bovine milk by affinity chromatography technique were previously determined. In our study, LPO activity was measured in the presence of different concentrations of secondary sulfanilamide derivatives (4a–8h). A control sample without secondary sulfonamide was taken as 100%. An activity (%)-[Secondary sulfonamide] plot was drawn. For the determination of the inhibition constant (Ki) values, three different secondary sulfonamide derivative (4a–8h) concentrations were used. Additionally, ABTS was used as a substrate at five different concentrations. Lineweaver–Burk plots (1/V-1/[ABTS]) were obtained for secondary sulfonamide; the Ki and the inhibition type were calculated from these plots. The data obtained were analysed by t-test and the results are given as Means ± SD.

[1] = LPO purified from bovine milk, Lineweaver–Burk plots, three inhibitor and five ABTS concentrations, Means ± SD
[2] = bovine milk LPO, values restated in text in nM

## Nc1ccc(S(=O)(=O)Nc2nccs2)cc1 [4a, Sulfathiazole, reference compound]
[1]
  Ki: 38400 ± 6060 nM
LPO purified from bovine milk
  IC50: 231000 nM
  Inhibition Type: Non-competitive

## Nc1ccc(S(=O)(=O)Nc2ncccn2)cc1 [4b, Sulfadiazine, reference compound]
[1]
  Ki: 90700 ± 2520 nM
LPO purified from bovine milk
  IC50: 92200 nM
  Inhibition Type: Non-competitive

## Cc1cc(C)nc(NS(=O)(=O)c2ccc(N)cc2)n1 [4c, Sulfamethazine, reference compound]
[1]
  Ki: 198000 ± 24500 nM
LPO purified from bovine milk
  IC50: 346000 nM
  Inhibition Type: Non-competitive

## Nc1ccc(S(=O)(=O)Nc2ccccn2)cc1 [4d, Sulfapyridine, reference compound]
[1]
  Ki: 65000 ± 3610 nM
LPO purified from bovine milk
  IC50: 227000 nM
  Inhibition Type: Competitive

## Cc1noc(NS(=O)(=O)c2ccc(N)cc2)c1C [4e, Sulfisoxazole, reference compound]
[1]
  Ki: 183000 ± 34100 nM
LPO purified from bovine milk
  IC50: 222000 nM
  Inhibition Type: Non-competitive

## Cc1nnc(NS(=O)(=O)c2ccc(N)cc2)s1 [4f, Sulfamethizole, reference compound]
[1]
  Ki: 21200 ± 5660 nM
LPO purified from bovine milk
  IC50: 115000 nM
  Inhibition Type: Non-competitive

## Cc1ccnc(NS(=O)(=O)c2ccc(N)cc2)n1 [4g, Sulfamerazine, reference compound]
[1]
  Ki: 20500 ± 2140 nM
LPO purified from bovine milk
  IC50: 18700 nM
  Inhibition Type: Non-competitive

## Nc1ccc(S(N)(=O)=O)cc1 [4h, Sulfanilamide, reference compound]
[1]
  Ki: 35700 ± 4880 nM
LPO purified from bovine milk
  IC50: 8480 nM
  Inhibition Type: Competitive

## CC(=O)Oc1ccc(C(=O)Nc2ccc(S(=O)(=O)Nc3nccs3)cc2)cc1 [5a, N-(sulfathiazole)-p-acetoxybenzamide]
[1]
  Ki: 56100 ± 23600 nM
LPO purified from bovine milk
  IC50: 99000 nM
  Inhibition Type: Non-competitive

## CC(=O)Oc1ccc(C(=O)Nc2ccc(S(=O)(=O)Nc3ncccn3)cc2)cc1 [5b, N-(sulfadiazine)-p-acetoxybenzamide]
[1]
  Ki: 26 ± 4 nM
LPO purified from bovine milk
  IC50: 15 nM
[2]
  Ki: 260 nM
  Inhibition Type: Non-competitive

## CC(=O)Oc1ccc(C(=O)Nc2ccc(S(=O)(=O)Nc3nc(C)cc(C)n3)cc2)cc1 [5c, N-(sulfamethazine)-p-acetoxybenzamide]
[1]
  Ki: 8 ± 3 nM
LPO purified from bovine milk
  IC50: 10 nM
[2]
  Ki: 80 nM
  Inhibition Type: Competitive

## CC(=O)Oc1ccc(C(=O)Nc2ccc(S(=O)(=O)Nc3ccccn3)cc2)cc1 [5d, N-(sulfapyridine)-p-acetoxybenzamide]
[1]
  Ki: 49100 ± 20000 nM
LPO purified from bovine milk
  IC50: 10000 nM
  Inhibition Type: Competitive

## CC(=O)Oc1ccc(C(=O)Nc2ccc(S(=O)(=O)Nc3onc(C)c3C)cc2)cc1 [5e, N-(sulfisoxazole)-p-acetoxybenzamide]
[1]
  Ki: 934 ± 357 nM
LPO purified from bovine milk
  IC50: 3030 nM
  Inhibition Type: Competitive

## CC(=O)Oc1ccc(C(=O)Nc2ccc(S(=O)(=O)Nc3nnc(C)s3)cc2)cc1 [5f, N-(sulfamethizole)-p-acetoxybenzamide]
[1]
  Ki: 324 ± 115 nM
LPO purified from bovine milk
  IC50: 238 nM
  Inhibition Type: Non-competitive

## CC(=O)Oc1ccc(C(=O)Nc2ccc(S(=O)(=O)Nc3nccc(C)n3)cc2)cc1 [5g, N-(sulfamerazine)-p-acetoxybenzamide]
[1]
  Ki: 13400 ± 6190 nM
LPO purified from bovine milk
  IC50: 3940 nM
  Inhibition Type: Competitive

## CC(=O)Oc1ccc(C(=O)Nc2ccc(S(N)(=O)=O)cc2)cc1 [5h, N-(sulfanilamide)-p-acetoxybenzamide]
[1]
  Ki: 2290 ± 1020 nM
LPO purified from bovine milk
  IC50: 3050 nM
  Inhibition Type: Non-competitive

## CC(=O)Oc1cc(C(=O)Nc2ccc(S(=O)(=O)Nc3nccs3)cc2)cc(OC(C)=O)c1OC(C)=O [6a, N-(sulfathiazole)-3,4,5-triacetoxybenzamide]
[1]
  Ki: 1.1 nM
LPO purified from bovine milk
  IC50: 0.656 nM
  Inhibition Type: Non-competitive

## CC(=O)Oc1cc(C(=O)Nc2ccc(S(=O)(=O)Nc3ncccn3)cc2)cc(OC(C)=O)c1OC(C)=O [6b, N-(sulfadiazine)-3,4,5-triacetoxybenzamide]
[1]
  Ki: 2900 ± 1130 nM
LPO purified from bovine milk
  IC50: 13900 nM
  Inhibition Type: Competitive

## CC(=O)Oc1cc(C(=O)Nc2ccc(S(=O)(=O)Nc3nc(C)cc(C)n3)cc2)cc(OC(C)=O)c1OC(C)=O [6c, N-(sulfamethazine)-3,4,5-triacetoxybenzamide]
[1]
  Ki: 152000 ± 48700 nM
LPO purified from bovine milk
  IC50: 139000 nM
  Inhibition Type: Non-competitive

## CC(=O)Oc1cc(C(=O)Nc2ccc(S(=O)(=O)Nc3ccccn3)cc2)cc(OC(C)=O)c1OC(C)=O [6d, N-(sulfapyridine)-3,4,5-triacetoxybenzamide]
[1]
  Ki: 1390 ± 150 nM
LPO purified from bovine milk
  IC50: 1560 nM
  Inhibition Type: Non-competitive

## CC(=O)Oc1cc(C(=O)Nc2ccc(S(=O)(=O)Nc3onc(C)c3C)cc2)cc(OC(C)=O)c1OC(C)=O [6e, N-(sulfisoxazole)-3,4,5-triacetoxybenzamide]
[1]
  Ki: 1070 ± 20 nM
LPO purified from bovine milk
  IC50: 2030 nM
  Inhibition Type: Competitive

## CC(=O)Oc1cc(C(=O)Nc2ccc(S(=O)(=O)Nc3nnc(C)s3)cc2)cc(OC(C)=O)c1OC(C)=O [6f, N-(sulfamethizole)-3,4,5-triacetoxybenzamide]
[1]
  Ki: 8550 ± 1450 nM
LPO purified from bovine milk
  IC50: 6660 nM
  Inhibition Type: Non-competitive

## CC(=O)Oc1cc(C(=O)Nc2ccc(S(=O)(=O)Nc3nccc(C)n3)cc2)cc(OC(C)=O)c1OC(C)=O [6g, N-(sulfamerazine)-3,4,5-triacetoxybenzamide]
[1]
  Ki: 1490 ± 280 nM
LPO purified from bovine milk
  IC50: 1280 nM
  Inhibition Type: Non-competitive

## CC(=O)Oc1cc(C(=O)Nc2ccc(S(N)(=O)=O)cc2)cc(OC(C)=O)c1OC(C)=O [6h, N-(sulfanilamide)-3,4,5-triacetoxybenzamide]
[1]
  Ki: 2290 ± 980 nM
LPO purified from bovine milk
  IC50: 3050 nM
  Inhibition Type: Non-competitive

## O=C(Nc1ccc(S(=O)(=O)Nc2nccs2)cc1)c1ccc(O)cc1 [7a, N-(sulfathiazole)-p-hydroxybenzamide]
[1]
  Ki: 6850 ± 1810 nM
LPO purified from bovine milk
  IC50: 15100 nM
  Inhibition Type: Non-competitive

## O=C(Nc1ccc(S(=O)(=O)Nc2ncccn2)cc1)c1ccc(O)cc1 [7b, N-(sulfadiazine)-p-hydroxybenzamide]
[1]
  Ki: 44 ± 22 nM
LPO purified from bovine milk
  IC50: 40 nM
  Inhibition Type: Noncompetitive

## Cc1cc(C)nc(NS(=O)(=O)c2ccc(NC(=O)c3ccc(O)cc3)cc2)n1 [7c, N-(sulfamethazine)-p-hydroxybenzamide]
[1]
  Ki: 484 ± 146 nM
LPO purified from bovine milk
  IC50: 426 nM
  Inhibition Type: Non-competitive

## O=C(Nc1ccc(S(=O)(=O)Nc2ccccn2)cc1)c1ccc(O)cc1 [7d, N-(sulfapyridine)-p-hydroxybenzamide]
[1]
  Ki: 1410 ± 130 nM
LPO purified from bovine milk
  IC50: 2960 nM
  Inhibition Type: Competitive

## Cc1noc(NS(=O)(=O)c2ccc(NC(=O)c3ccc(O)cc3)cc2)c1C [7e, N-(sulfisoxazole)-p-hydroxybenzamide]
[1]
  Ki: 15100 ± 3900 nM
LPO purified from bovine milk
  IC50: 10800 nM
  Inhibition Type: Non-competitive

## Cc1nnc(NS(=O)(=O)c2ccc(NC(=O)c3ccc(O)cc3)cc2)s1 [7f, N-(sulfamethizole)-p-hydroxybenzamide]
[1]
  Ki: 387 ± 150 nM
LPO purified from bovine milk
  IC50: 799 nM
  Inhibition Type: Competitive

## Cc1ccnc(NS(=O)(=O)c2ccc(NC(=O)c3ccc(O)cc3)cc2)n1 [7g, N-(sulfamerazine)-p-hydroxybenzamide]
[1]
  Ki: 3940 ± 1100 nM
LPO purified from bovine milk
  IC50: 1760 nM
  Inhibition Type: Non-competitive

## NS(=O)(=O)c1ccc(NC(=O)c2ccc(O)cc2)cc1 [7h, N-(sulfanilamide)-p-hydroxybenzamide]
[1]
  Ki: 217 ± 99 nM
LPO purified from bovine milk
  IC50: 285 nM
  Inhibition Type: Non-competitive

## O=C(Nc1ccc(S(=O)(=O)Nc2nccs2)cc1)c1cc(O)c(O)c(O)c1 [8a, N-(sulfathiazole)-3,4,5-trihydroxybenzamide]
[1]
  Ki: 25 ± 10 nM
LPO purified from bovine milk
  IC50: 14 nM
  Inhibition Type: Competitive

## O=C(Nc1ccc(S(=O)(=O)Nc2ncccn2)cc1)c1cc(O)c(O)c(O)c1 [8b, N-(sulfadiazine)-3,4,5-trihydroxybenzamide]
[1]
  Ki: 1290 ± 465 nM
LPO purified from bovine milk
  IC50: 715 nM
  Inhibition Type: Non-competitive

## Cc1cc(C)nc(NS(=O)(=O)c2ccc(NC(=O)c3cc(O)c(O)c(O)c3)cc2)n1 [8c, N-(sulfamethazine)-3,4,5-trihydroxybenzamide]
[1]
  Ki: 2170 ± 880 nM
LPO purified from bovine milk
  IC50: 2530 nM
  Inhibition Type: Competitive

## O=C(Nc1ccc(S(=O)(=O)Nc2ccccn2)cc1)c1cc(O)c(O)c(O)c1 [8d, N-(sulfapyridine)-3,4,5-trihydroxybenzamide]
[1]
  Ki: 5850 ± 1280 nM
LPO purified from bovine milk
  IC50: 10200 nM
  Inhibition Type: Competitive

## Cc1noc(NS(=O)(=O)c2ccc(NC(=O)c3cc(O)c(O)c(O)c3)cc2)c1C [8e, N-(sulfisoxazole)-3,4,5-trihydroxybenzamide]
[1]
  Ki: 1440 ± 520 nM
LPO purified from bovine milk
  IC50: 1990 nM
  Inhibition Type: Competitive

## Cc1nnc(NS(=O)(=O)c2ccc(NC(=O)c3cc(O)c(O)c(O)c3)cc2)s1 [8f, N-(sulfamethizole)-3,4,5-trihydroxybenzamide]
[1]
  Ki: 293000 ± 62000 nM
LPO purified from bovine milk
  IC50: 173000 nM
  Inhibition Type: Non-competitive

## Cc1ccnc(NS(=O)(=O)c2ccc(NC(=O)c3cc(O)c(O)c(O)c3)cc2)n1 [8g, N-(sulfamerazine)-3,4,5-trihydroxybenzamide]
[1]
  Ki: 3870 ± 430 nM
LPO purified from bovine milk
  IC50: 1480 nM
  Inhibition Type: Non-competitive

## NS(=O)(=O)c1ccc(NC(=O)c2cc(O)c(O)c(O)c2)cc1 [8h, N-(sulfanilamide)-3,4,5-trihydroxybenzamide]
[1]
  Ki: 3100 ± 578 nM
LPO purified from bovine milk
  IC50: 1780 nM
  Inhibition Type: Non-competitive
